# Experimental data taken from patent US8207208B2, “Angiotensin II receptor antagonists” (Merck Sharp & Dohme Corp., priority 2008, dated 2012).
# Tests used:
# [1] = test system: reactive nitrogen species (RNS), detected as S-nitrosothiols in rat plasma; experiment: DAN assay of reactive nitrogen species in plasma after oral dosing of rats; format: in vivo, Sprague-Dawley rats; settings: fasted SD rats, 40 mpk PO
# Procedure: Mononitrate compounds that have been orally dosed to rats result in nitrites (metabolites of nitric oxide) circulating in plasma with maximal concentrations in the 0.5-2 μM range. Similar dosing of isosorbide mononitrate compounds described in this invention results in increased circulating nitrite concentrations. Biochemical evidence for the generation of NO in vivo in response to test compound administration was obtained from studies in Sprague-Dawley rats. Administration of test compound to fasted SD rats (40 mpk, PO) results in the appearance of reactive nitrogen species (RNS), assessed using the diaminonapthalene derivitization (DAN) assay.
# RNS were detected as S-nitrosothiols (RNSOs) in EDTA-treated rat plasma using an HPLC fluorescent assay based on the method of Kostka and Park (Methods Enzymol. 1999, 301, 227-235). The method is based on the detection of fluorescent 2,3-naphthotriazole (NAT) formed in the reaction between acidified 2,3-diaminonaphthalene and the nitrosonium moiety of RSNOs released by HgCl2-mediated breakdown of the S—NO bond. The reaction mixture was chromatographed by reversed phase HPLC, and the fluorescent signal of the resolved NAT peak was quantified.
# Plasma (20 μL) was first diluted 1:1 in H2O (20 μL) in a black polypropylene untreated microtiter plate. DAN reagent (100 μL per well, 100 μM DAN in 0.1 N HCl, 4 mM HgCl2) was added, and the plate was immediately sealed with an opaque plate mat, vortexed, and incubated in the dark for 10 min. Plates were centrifuged (2000×g, 5 min) and chilled to 4° C. before HPLC analysis. HPLC was carried out on an Agilent 1200 system using a chilled autosampler (4° C.). Samples were chromatographed on a C8 column (Zorbax Eclipse XDB-C8, 4.6×150 mm, 5 μm) with isocratic elution using a mobile phase of 67% MeOH, 0.1% NH4OAc and a flow rate of 2 mL/min. NAT fluorescence was monitored at 450 nm using an excitation wavelength of 360 nm. Calibration curves were prepared using NaNO2 in control plasma.
# RNS change for Examples 2, 3, 4, 5, 7, 10, 11 and 12 was measured at 1, 3, 6 and 24 hours, and is shown below.
# vessel = vessel relaxation assay
Molecule,EC50 (vessel) [µM],DAN ΔRNS ([1]; 1 h) [µM],DAN ΔRNS ([1]; 3 h) [µM],DAN ΔRNS ([1]; 6 h) [µM],DAN ΔRNS ([1]; 24 h) [µM]
"CCCCc1nc(Cl)c(C(=O)O[C@H](C)C(=O)O[C@H]2CO[C@H]3[C@@H]2OC[C@H]3O[N+](=O)[O-])n1Cc1ccc(-c2ccccc2-c2nnn[nH]2)cc1 [Example 10, (1R)-1-methyl-2-{[(3S,3aR,6R,6aS)-6-(nitrooxy)hexahydrofuro[3,2-b]furan-3-yl]oxy}-2-oxoethyl 2-butyl-4-chloro-1-{[2′-(1H-tetrazol-5-yl)biphenyl-4-yl]methyl}-1H-imidazole-5-carboxylate]",,0.7 ± 0.3,2.0 ± 0.4,1.9 ± 0.7,0.1 ± 0.3
"CCCCc1nc(Cl)c(C(=O)O[C@H](C)OC(=O)O[C@H]2CO[C@H]3[C@@H]2OC[C@H]3O[N+](=O)[O-])n1Cc1ccc(-c2ccccc2-c2nnn[nH]2)cc1 [Example 2, (1S)-1-[({[(3S,3aR,6R,6aS)-6-(nitrooxy)hexahydrofuro[3,2-b]furan-3-yl]oxy}carbonyl)oxy]ethyl 2-butyl-4-chloro-1-{[2′-(1H-tetrazol-5-yl)biphenyl-4-yl]methyl}-1H-imidazole-5-carboxylate]",9.5,2.3 ± 1.0,6.1 ± 1.1,4.5 ± 1.4,1.1 ± 0.7
"2-{[(3S,3aR,6R,6aS)-6-(nitrooxy)hexahydrofuro[3,2-b]furan-3-yl]oxy}-2-oxoethyl 2-butyl-4-chloro-1-{[2′-(1H-tetrazol-5-yl)biphenyl-4-yl]methyl}-1H-imidazole-5-carboxylate [Example 9]",5.1,,,,
"CCCCc1nc(Cl)c(C(=O)O[C@H]2CO[C@H]3[C@@H]2OC[C@H]3O[N+](=O)[O-])n1Cc1ccc(-c2ccccc2-c2nnn[nH]2)cc1 [Example 7, (3S,3aR,6R,6aS)-6-(nitrooxy)hexahydrofuro[3,2-b]furan-3-yl 2-butyl-4-chloro-1-{[2′-(1H-tetrazol-5-yl)biphenyl-4-yl]methyl}-1H-imidazole-5-carboxylate]",,5.4 ± 3.2,1.5 ± 1.2,0.2 ± 0.3,-0.3 ± 0.2
"CCCCc1nc(Cl)c(C(=O)O[C@@H](C)C(=O)O[C@H]2CO[C@H]3[C@@H]2OC[C@H]3O[N+](=O)[O-])n1Cc1ccc(-c2ccccc2-c2nnn[nH]2)cc1 [Example 11, (1S)-1-methyl-2-{[(3S,3aR,6R,6aS)-6-(nitrooxy)hexahydrofuro[3,2-b]furan-3-yl]oxy}-2-oxoethyl 2-butyl-4-chloro-1-{[2′-(1H-tetrazol-5-yl)biphenyl-4-yl]methyl}-1H-imidazole-5-carboxylate]",,1.1 ± 1.2,3.3 ± 1.5,1.8 ± 2.0,0.1 ± 1.8
"CCOc1nc2cccc(C(=O)O[C@@H](C)OC(=O)O[C@H]3CO[C@H]4[C@@H]3OC[C@H]4O[N+](=O)[O-])c2n1Cc1ccc(-c2ccccc2-c2nnn[nH]2)cc1 [Example 5, (1R)-1-[({[(3S,3aR,6R,6aS)-6-(nitrooxy)hexahydrofuro[3,2-b]furan-3-yl]oxy}carbonyl)oxy]ethyl 2-ethoxy-1-{[2′-(1H-tetrazol-5-yl)biphenyl-4-yl]methyl}-1H-benzimidazole-7-carboxylate]",,0.7 ± 0.5,2.5 ± 1.0,2.4 ± 1.2,-0.3 ± 0.6
"CCCCc1nc(Cl)c(C(=O)O[C@@H](C)OC(=O)O[C@H]2CO[C@H]3[C@@H]2OC[C@H]3O[N+](=O)[O-])n1Cc1ccc(-c2ccccc2-c2nnn[nH]2)cc1 [Example 3, (1R)-1-[({[(3S,3aR,6R,6aS)-6-(nitrooxy)hexahydrofuro[3,2-b]furan-3-yl]oxy}carbonyl)oxy]ethyl 2-butyl-4-chloro-1-{[2′-(1H-tetrazol-5-yl)biphenyl-4-yl]methyl}-1H-imidazole-5-carboxylate]",15.4,0.5 ± 0.4,2.7 ± 0.5,3.0 ± 0.5,0.1 ± 0.7

# The next lines start with results.
EC50 (vessel) [µM],Molecule,DAN ΔRNS ([1]; 1 h) [µM],DAN ΔRNS ([1]; 3 h) [µM],DAN ΔRNS ([1]; 6 h) [µM],DAN ΔRNS ([1]; 24 h) [µM]
14.2,"CCOc1nc2cccc(C(=O)OC(C)(C)OC(=O)O[C@H]3CO[C@H]4[C@@H]3OC[C@H]4O[N+](=O)[O-])c2n1Cc1ccc(-c2ccccc2-c2nnn[nH]2)cc1 [Example 1, 1-[({[(3S,6R)-6-(nitrooxy)hexahydrofuro[3,2-b]furan-3-yl]oxy}carbonyl)oxy]-1-methylethyl 2-ethoxy-1-{[2′-(1H-tetrazol-5-yl)biphenyl-4-yl]methyl}-1H-benzimidazole-7-carboxylate]",,,,
8.9,"CCOc1nc2cccc(C(=O)O[C@H](C)OC(=O)O[C@H]3CO[C@H]4[C@@H]3OC[C@H]4O[N+](=O)[O-])c2n1Cc1ccc(-c2ccccc2-c2nnn[nH]2)cc1 [Example 4, (1S)-1-[({[(3S,3aR,6R,6aS)-6-(nitrooxy)hexahydrofuro[3,2-b]furan-3-yl]oxy}carbonyl)oxy]ethyl 2-ethoxy-1-{[2′-(1H-tetrazol-5-yl)biphenyl-4-yl]methyl}-1H-benzimidazole-7-carboxylate]",0.9 ± 0.2,2.1 ± 1.4,4.2 ± 2.1,0.6 ± 0.3
20.6,"CCCCc1nc(Cl)c(C(=O)OCCC(=O)O[C@H]2CO[C@H]3[C@@H]2OC[C@H]3O[N+](=O)[O-])n1Cc1ccc(-c2ccccc2-c2nnn[nH]2)cc1 [Example 12, 3-{[(3S,3aR,6R,6aS)-6-(nitrooxy)hexahydrofuro[3,2-b]furan-3-yl]oxy}-3-oxopropyl 2-butyl-4-chloro-1-{[2′-(1H-tetrazol-5-yl)biphenyl-4-yl]methyl}-1H-imidazole-5-carboxylate]",0.5 ± 0.2,1.5 ± 0.9,1.3 ± 0.6,0.0 ± 0.2
